In this test the target is T1, Human BACE (Homo sapiens, UniProt P56817).
T1 construct: Recombinant BACE (extracellular domain, expressed in baculovirus and purified using standard methods); made in house
In words: Test 1: Inhibition of Human BACE. It counts as biochemical. The procedure: Test 1: Inhibition of Human BACE
Recombinant BACE (extracellular domain, expressed in baculovirus and purified using standard methods) at 0.1 to 10 nM concentrations is incubated with the test compound at various concentrations for 1 hour at room temperature in 10 to 100 mM acetate buffer, pH 4.5, containing 0.1% CHAPS. […] IC50 values are calculated from percentage of inhibition of BACE-activity as a function of the test compound concentration.

Where [1] appears, read: Test 1, recombinant BACE extracellular domain, acetate buffer pH 4.5, 1 hour incubation at room temperature, fluorescence-quenched APP-derived peptide substrate, read-out: Bace IC50.

SMILES strings stand for the structures. Counter-ions that a name gives are not always drawn. Like-named read-outs stand apart in the source and are kept apart here.

T1 sequence (P56817 46-457 limits assumed): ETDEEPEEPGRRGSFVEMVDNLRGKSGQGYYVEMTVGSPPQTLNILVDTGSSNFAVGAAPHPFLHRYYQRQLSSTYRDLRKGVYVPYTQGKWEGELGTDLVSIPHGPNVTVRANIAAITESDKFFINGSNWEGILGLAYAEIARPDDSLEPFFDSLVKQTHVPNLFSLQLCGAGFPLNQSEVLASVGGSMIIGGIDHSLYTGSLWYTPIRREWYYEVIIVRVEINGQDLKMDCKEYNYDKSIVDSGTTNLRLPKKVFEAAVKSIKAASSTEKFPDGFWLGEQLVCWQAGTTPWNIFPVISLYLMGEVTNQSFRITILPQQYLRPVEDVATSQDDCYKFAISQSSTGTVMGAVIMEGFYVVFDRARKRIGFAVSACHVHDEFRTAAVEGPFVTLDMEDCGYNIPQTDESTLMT

The term IC50 denotes the point on the concentration scale where inhibition reaches its midpoint. On to `CC(C)(C)c1cccc(CN[C@H]2CS(=O)(=O)C[C@@H](Cc3cc(F)c(N)c(O[C@H](CO)C(F)(F)F)c3)[C@@H]2O)c1` [Example 38, (3S,4S,5R)-3-[4-Amino-3-fluoro-5-((R)-2,2,2-trifluoro-1-hydroxymethyl-ethoxy)-benzyl]-5-(3-tert-butyl-benzylamino)-1,1-dioxo-hexahydro-1lambda*6*-thio-pyran-4-ol], for which the IC50 under setting [1] came to 3 nM.
Same read-out and setting: with `CC(C)(C)c1cccc(CN[C@H]2CS(=O)(=O)C[C@@H](Cc3cc(F)c(N)c(O[C@H](CN)C(F)(F)F)c3)[C@@H]2O)c1` [Example 39, (3S,4S,5R)-3-[4-Amino-3-((R)-1-aminomethyl-2,2,2-trifluoro-ethoxy)-5-fluoro-benzyl]-5-(3-tert-butyl-benzylamino)-1,1-dioxo-hexahydro-1lambda*6*-thiopyran-4-ol] the figure was 71 nM; with `COC[C@@H](Oc1cc(C[C@@H]2CSC[C@H](NCc3cccc(C(C)(C)C)c3)[C@H]2O)cc(F)c1N)C(F)(F)F` [Example 40, (3S,4S,5R)-3-[4-Amino-3-fluoro-5-((R)-2,2,2-trifluoro-1-methoxymethyl-ethoxy)-benzyl]-5-(3-tert-butyl-benzylamino)-tetrahydro-thiopyran-4-ol hydrochloride], 247 nM.
In the case of `COC[C@@H](Oc1cc(C[C@@H]2C[S+]([O-])C[C@H](NCc3cccc(C4(C)CC4)c3)[C@H]2O)cc(F)c1N)C(F)(F)F` (stereo partly drawn) [Example 43, (3S,4S,5R)-3-[4-Amino-3-fluoro-5-((R)-2,2,2-trifluoro-1-methoxymethyl-ethoxy)-benzyl]-5-[3-(1-methyl-cyclopropyl)-benzylamino]-1-oxo-hexahydro-1lambda*4*-thiopyran-4-ol hydrochloride], the IC50 under setting [1] was 10 nM.
For `COC[C@@H](Oc1cc(C[C@@H]2C[S@@+]([O-])C[C@H](NCc3cccc(C(C)(C)C(F)(F)F)c3)[C@H]2O)cc(F)c1N)C(F)(F)F` [Example 44, (1R,3S,4S,5R)-3-[4-Amino-3-fluoro-5-((R)-2,2,2-trifluoro-1-methoxymethyl-ethoxy)-benzyl]-1-oxo-5-[3-(2,2,2-trifluoro-1,1-dimethyl-ethyl)-benzylamino]-tetrahydro-thiopyran-4-ol], under setting [1], the IC50 is 27 nM.
Still for that read-out and setting: with `COC[C@@H](Oc1cc(C[C@@H]2C[S@@+]([O-])C[C@H](NCc3cc(OC)cc(C(C)C)c3)[C@H]2O)cc(F)c1N)C(F)(F)F` [Example 48, (1R,3S,4S,5R)-3-[4-Amino-3-fluoro-5-((R)-2,2,2-trifluoro-1-methoxymethyl-ethoxy)-benzyl]-5-(3-isopropyl-5-methoxy-benzylamino)-1-oxo-tetrahydro-thiopyran-4-ol] the figure was 26 nM; with `COC[C@@H](Oc1cc(C[C@@H]2C[S@@+]([O-])C[C@H](NCc3cc(OC)cc(C(C)(C)C)c3)[C@H]2O)cc(F)c1N)C(F)(F)F` [Example 49, (1R,3S,4S,5R)-3-[4-Amino-3-fluoro-5-((R)-2,2,2-trifluoro-1-methoxymethyl-ethoxy)-benzyl]-5-(3-tert-butyl-5-methoxy-benzylamino)-1-oxo-tetrahydro-thiopyran-4-ol dihydrochloride], 15 nM.
On to `COC[C@@H](Oc1cc(C[C@@H]2C[S@@+]([O-])C[C@H](NCc3ccc4c(c3)OC(C)(C)C4)[C@H]2O)cc(F)c1N)C(F)(F)F` [Example 50, (1R,3S,4S,5R)-3-[4-Amino-3-fluoro-5-((R)-2,2,2-trifluoro-1-methoxymethyl-ethoxy)-benzyl]-5-[(2,2-dimethyl-2,3-dihydro-benzofuran-6-ylmethyl)-amino]-1-oxo-tetrahydro-thiopyran-4-ol dihydrochloride], for which the IC50 under setting [1] came to 2400 nM.
On the same count and under the same terms, with `C[C@H](Oc1cc(C[C@@H]2C[S@@+]([O-])C[C@H](NCc3ccc4c(c3)C(C)(C)OC4)[C@H]2O)cc(F)c1N)C(F)(F)F` [Example 52, (1R,3S,4S,5R)-3-[4-Amino-3-fluoro-5-((S)-2,2,2-trifluoro-1-methyl-ethoxy)-benzyl]-5-[(3,3-dimethyl-1,3-dihydro-isobenzofuran-5-ylmethyl)-amino]-1-oxo-hexa-hydro-1lambda*4*-thiopyran-4-ol] the figure was 117 nM; with `COCC(Oc1cc(CC2C[S+]([O-])CC(NCc3cccc(OC)c3)C2O)cc(F)c1N)C(F)(F)F` (stereo not shown) [Example 59], 384 nM; with `COCC(Oc1cc(CC2C[S+]([O-])CC(NCc3cccc(OC(F)F)c3)C2O)cc(F)c1N)C(F)(F)F` (stereo not shown) [Example 62], 334 nM.
On the same count and under the same terms, with `C[Si](C)(C)c1cccc(CNC2C[S+]([O-])CC(Cc3cc(F)c(N)c(OCC(F)(F)F)c3)C2O)c1` (stereo not shown) [Example 63] the figure was 118 nM.
Compound `COC[C@@H](Oc1cc(C[C@@H]2C[S@@+]([O-])C[C@H](NCc3cccc(C(C)(C)C)c3)C2=O)cc(F)c1N)C(F)(F)F` [Example 64, (1R,3S,5R)-3-[4-Amino-3-fluoro-5-((R)-2,2,2-trifluoro-1-methoxymethyl-ethoxy)-benzyl]-5-(3-tert-butyl-benzylamino)-1-oxo-tetrahydro-thiopyran-4-one trifluoroacetate] returned a concentration for half-maximal inhibition (IC50) of 4 nM.

The values above are taken from patent US8093406B2, “Cyclic sulfones with aminobenzyl substitution useful as BACE inhibitors” (Novartis AG, priority 2008, dated 2012).
